# Experimental data as given in patent US6803366B2, “Agent for improving learning or memory” (Toray Industries, Inc., priority 1999, dated 2004).
# Entries after “also recorded” stand apart in the source; their conditions may differ.
# Experiments:
# [1] = system: patients suffering from dementia; details: cited from earlier work
# ICR male mice [2] = assay: Evaluation of activity to improve learning and/or memory using Morris water maze; type: in vivo
# Experimental: Evaluation of Activity to Improve Learning and/or Memory Using Morris Water Maze
# In experiments, ICR male mice of 6 weeks old were used. Using Morris water maze as an experiment apparatus, ability of learning and memory of space was evaluated based on the latency until a mouse escapes to a platform arranged in a pool as an index. One trial was maximally 120 seconds, and 1 session was composed of three trials in which each mouse was made to swim in the pool from three different positions. Average time needed for the escape was calculated and evaluation was made based thereon. On the first day (the first session), no drug and nothing were administered. From the second session (Day 2), Compound 1, Compound 8 or a solvent was administered. Trial was repeated for 5 days (5 sessions).
# The dose of Compound 1 was 10, 30 or 100 μg/kg, and the dose of Compound 8 was 100 μg/kg. Compound 1, Compound 8 or saline which was the solvent was subcutaneously administered 30 minutes before the first trial of each session. The data was subjected to analysis of variance and significance was evaluated according to Fisher's PLSD test. The cases where P<0.05 was evaluated as significant.
# ICR male mice [3] = assay: Test of learning of Step-Down type passive avoidance (MK-801-induced learning disability and memory disorder); type: in vivo; details: test 24 hours after training, FIG. 2
# Experimental: In experiments, ICR male mice of 6 weeks old were used. The experiment apparatus comprised a plastic box sizing 25×25×30 cm (width×depth×height), a stainless steel grid for giving electrical shock, which was laid on the floor of the box, and a wooden platform sizing 4.5×4.5×3.0 cm (width×depth×height) placed on a corner on the floor grid.
# Sixty minutes before the training trial, 100 or 300 μg/kg of Compound 1, or its solvent, saline, was subcutaneously administered. Thirty minutes later, 0.1 mg/kg of MK-801 which is a non-competitive antagonist of NMDA receptor, which is a compound that causes learning disability and/or memory disorder was intraperitoneally administered. Training trial was carried out by placing a mouse on the platform, and the time period until the mouse stepped down to the floor grid, that is, the Step-Down latency, was measured. Simultaneously with the attaching all of the feet of the mouse to the floor, an electrical shock of 0.6 mA was given for 2 seconds, thereby making the mouse to learn that an electrical shock would be given if the mouse would stepped down to the floor.
# Test trials were carried out 24 hours after the training trials. Each mouse was again placed on the platform, and the Step-Down latency was measured for maximally 300 seconds.
structure (smiles),measurement,setting,value
Nc1c2c(nc3ccccc13)CCCC2 [tacrine],side effects,[1]; clinical use,hepatic toxicity and choline-related side effects
same,improvement of intellectual function in cases in which the drug is administered,[1]; dementia patients,improvement of intellectual function to a certain degree is observed in about half of the cases
"CN1CC[C@@]2(c3cccc(O)c3)Cc3nc4c(Br)cc(Br)cc4cc3C[C@@H]2C1 [Compound 8, (+)-7,9-dibromo-4a-(3-hydroxyphenyl)-2-methyl-1,2,3,4,4a,5,12,12a-octahydro-quinoline[2,3 g]isoquinoline]",latency required for escaping to the platform; ability of learning and memory of space,"ICR male mice [2]; Compound 8 100 μg/kg subcutaneously 30 minutes before first trial of each session, vs saline, FIG. 3",shortened
COc1cc2c(cc1OC)C(=O)C(CC1CCN(Cc3ccccc3)CC1)C2 (stereo not shown) [Aricept],improvement in patients suffering from dementia,[1]; dementia in light to medium degree,improvement is observed in about half cases
C[C@]12N[C@H](Cc3ccccc31)c1ccccc12 [MK-801],Step-Down latency in test trials (passive avoidance reaction),"ICR male mice [3]; MK-801 alone 0.1 mg/kg i.p., vs control group (solvent alone)",significantly shorter than that of the control group; also recorded: significantly suppressed
"CN1CC[C@@]2(c3cccc(O)c3)Cc3nc4ccccc4cc3C[C@H]2C1 [Compound 1, (4aR, 12aR)-2-methyl-4a-(3-hydroxyphenyl)-1,2,3,4,4a,5,12,12a-octahydro-quinoline[2,3-g]isoquinoline]",time period (latency) required for escaping to the platform; ability of learning and memory of space,"ICR male mice [2]; Compound 1 10, 30 or 100 μg/kg subcutaneously 30 minutes before first trial of each session, sessions 2-5, vs saline, FIG. 1",shortened dose-dependently from the second session; also recorded: ability of learning and memory of space was improved
same,Step-Down latency in test trials: reversal of the shortening by MK-801,"ICR male mice [3]; Compound 1 100 or 300 μg/kg s.c. 60 min before training, MK-801 0.1 mg/kg i.p. 30 min later, vs MK-801 alone",significantly reduced; also recorded: recovered
